**Q.** With `COc1cc(Nc2cccc(-c3ccccc3)c2)ccc1-c1cnco1` [Example 29, N-[3-Methoxy-4-(5-oxazolyl)phenyl][1,1′-biphenyl]-3-amine] as the compound, how does the melting point read?
**A.** 171 to 173 °C

**Q.** With `COc1cc(Nc2nsc(-c3ccccc3)n2)ccc1-c1cnco1` [Example 30, N-[3-Methoxy-4-(5-oxazolyl)phenyl]-5-phenyl-1,2,4-thiadiazol-3-amine] as the compound, how does the melting point read?
**A.** 260 to 261 °C

**Q.** For `COc1cc(Nc2cc(-c3ccccc3)on2)ccc1-c1cnco1` [Example 31, N-[3-Methoxy-4-(5-oxazolyl)phenyl]-5-phenyl-3-isoxazolamine], which melting point is on record?
**A.** 173 to 175 °C

**Q.** For `COc1cc(Nc2ncc(-c3ccccc3)o2)ccc1-c1cnco1` [Example 34, N-[3-Methoxy-4-(5-oxazolyl)phenyl]-5-phenyl-2-oxazolamine], which melting point is on record?
**A.** 212 to 215 °C

**Q.** With `COc1cc(Nc2ncc(-c3ccccc3N(C)C(=O)CN3CCOCC3)o2)ccc1-c1cnco1` [Example 79, N-[2-[2-[[3-Methoxy-4-(5-oxazolyl)phenyl]amino]-5-oxazolyl]phenyl]-N-methyl-4-morpholineacetamide] as the compound, how does the melting point read?
**A.** 179 to 181 °C

**Q.** Which melting point does the source give for `COc1cc(Nc2ncc(-c3ccccc3C(=O)O)o2)ccc1-c1cnco1` [Example 80, 2-[2-[[3-Methoxy-4-(5-oxazolyl)phenyl]amino]-5-oxazolyl]benzoic acid] here?
**A.** 271 to 274 °C

Source: patent publication US6399773B1, “Compounds derived from an amine nucleus that are inhibitors of IMPDH enzyme” (Bristol-Myers Squibb Co., priority 1998, dated 2002)
